# Source: patent publication US11555012B2 (Nimbus Artemis, Inc., priority 2018, dated 2023)
# Target: ACL (Homo sapiens (Human), UniProt P53396)
# Assay: ADP-Glo Assay
# ACL, sequence (P53396 other isoform, or with tags, fused parts or gaps isoform P53396-2): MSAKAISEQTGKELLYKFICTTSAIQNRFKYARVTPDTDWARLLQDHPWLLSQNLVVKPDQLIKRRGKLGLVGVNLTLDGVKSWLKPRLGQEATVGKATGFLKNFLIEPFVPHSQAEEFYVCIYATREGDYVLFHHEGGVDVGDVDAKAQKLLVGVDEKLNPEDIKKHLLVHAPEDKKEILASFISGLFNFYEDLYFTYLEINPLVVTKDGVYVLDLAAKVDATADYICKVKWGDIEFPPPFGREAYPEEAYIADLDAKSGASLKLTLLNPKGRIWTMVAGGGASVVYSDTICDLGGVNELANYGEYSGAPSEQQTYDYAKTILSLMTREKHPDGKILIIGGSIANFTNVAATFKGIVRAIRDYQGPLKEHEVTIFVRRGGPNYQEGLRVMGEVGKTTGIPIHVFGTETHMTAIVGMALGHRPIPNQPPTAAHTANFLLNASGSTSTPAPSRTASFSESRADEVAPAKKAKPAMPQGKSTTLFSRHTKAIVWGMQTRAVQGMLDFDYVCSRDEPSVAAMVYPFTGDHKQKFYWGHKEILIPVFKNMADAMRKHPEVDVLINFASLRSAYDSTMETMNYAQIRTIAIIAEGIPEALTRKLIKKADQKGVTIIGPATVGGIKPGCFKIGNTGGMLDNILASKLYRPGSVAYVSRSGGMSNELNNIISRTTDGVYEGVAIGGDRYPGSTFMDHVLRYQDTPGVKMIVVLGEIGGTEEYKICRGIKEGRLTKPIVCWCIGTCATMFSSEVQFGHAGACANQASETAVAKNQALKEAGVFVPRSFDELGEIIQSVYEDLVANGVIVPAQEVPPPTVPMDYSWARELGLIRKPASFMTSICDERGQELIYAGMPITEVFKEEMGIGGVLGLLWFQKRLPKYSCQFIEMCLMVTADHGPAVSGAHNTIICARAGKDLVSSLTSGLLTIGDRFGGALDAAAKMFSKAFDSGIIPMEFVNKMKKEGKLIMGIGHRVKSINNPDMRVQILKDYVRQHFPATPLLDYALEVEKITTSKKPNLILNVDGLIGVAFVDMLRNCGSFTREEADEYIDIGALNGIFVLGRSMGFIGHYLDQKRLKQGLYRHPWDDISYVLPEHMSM
row,IC50,SMILES
1,0.5 to 20 µM,"O=S(=O)(NCc1cc(-c2ccccc2)ccc1F)c1cc(Cl)cc(Cl)c1O [I-125, 3,5-dichloro-N-((4-fluoro-[1,1′-biphenyl]-3-yl)methyl)-2-hydroxybenzenesulfonamide]"
2,0.5 to 20 µM,"O=S(=O)(Nc1cc(-c2ccccc2)ccc1F)c1ccccc1O [I-35, N-(2-fluoro-5-phenylphenyl)-2-hydroxybenzene-1-sulfonamide]"
3,> 20 µM,"COc1ccc(-c2ccccc2)cc1NS(=O)(=O)c1ccccc1O [I-528, 2-hydroxy-N-(4-methoxy-[1,1′-biphenyl]-3-yl)benzenesulfonamide]"
4,0.5 to 20 µM,"COc1ccc(-c2ccccc2)cc1NS(=O)(=O)c1cc(Cl)cc(Cl)c1NS(C)(=O)=O [I-263, 3,5-dichloro-2-methanesulfonamido-N-[4-methoxy-[1,1-biphenyl]-3-yl]benzene-1-sulfonamide]"
5,> 20 µM,"O=S(=O)(Nc1cc(-c2ccccc2)c(F)cc1F)c1cccc2c1OCCO2 [I-383, N-[4,6-difluoro-[1,1-biphenyl]-3-yl]-2,3-dihydro-1,4-benzodioxine-5-sulfonamide]"
6,0.5 to 20 µM,"COC(=O)c1ccc(-c2ccccc2)cc1NS(=O)(=O)c1cc(Cl)cnc1O [I-346, methyl 3-((5-chloro-2-hydroxypyridine)-3-sulfonamido)-[1,1′-biphenyl]-4-carboxylate]"
7,0.5 to 20 µM,"COc1c(Br)cc(C(=O)N2CCC2)cc1S(=O)(=O)Nc1cc(-c2ccccc2)ccc1F [I-154, 5-(azetidine-1-carbonyl)-3-bromo-N-(4-fluoro-[1,1′-biphenyl]-3-yl)-2-methoxybenzenesulfonamide]"
8,0.5 to 20 µM,O=S(=O)(NCC1(Cc2ccc(F)cc2)CC1)c1cc(Cl)cc(Cl)c1O [I-187]
9,0.5 to 20 µM,"NC(=O)COc1c(Cl)cc(Cl)cc1C(=O)Nc1cc(-c2ccccc2)ccc1C(=O)O [I-320, 3-(2-(2-amino-2-oxoethoxy)-3,5-dichlorobenzamido)-[1,1′-biphenyl]-4-carboxylic Acid]"
10,0.5 to 20 µM,O=C(O)c1cc(Cl)c(Cl)c(S(=O)(=O)Nc2cc(-c3ccccc3)ccc2F)c1 [I-256]
11,0.5 to 20 µM,"O=C(O)COc1ccc(-c2ccccc2)cc1NS(=O)(=O)c1cc(C(=O)N2CCC2)cc(Cl)c1O [I-270, 2-([3-[5-(azetidine-1-carbonyl)-3-chloro-2-hydroxybenzenesulfonamido]-[1,1-biphenyl]-4-yl]oxy)acetic Acid]"
12,> 20 µM,O=C(O)c1ccc(-c2ccccc2)cc1NS(=O)(=O)c1cn[nH]c1 [I-445]

# Further lines, the compound ahead of its results:
row,SMILES,IC50
1,"COc1ccc(C(=O)O)cc1NS(=O)(=O)c1cc(Cl)cc(Cl)c1O [I-404, 3-((3,5-dichloro-2-hydroxyphenyl)sulfonamido)-4-methoxybenzoic acid]",> 20 µM
2,O=C(O)c1ccc(-c2ccccc2)cc1NS(=O)(=O)CCOCCN1C(=O)c2ccccc2C1=O [I-360],0.5 to 20 µM
3,"O=S(=O)(Nc1cc(-c2ccccc2)c(F)cc1F)c1cccc(Cl)c1Cl [I-190, 2,3-dichloro-N-[4,6-difluoro-[1,1-biphenyl]-3-yl]benzene-1-sulfonamide]",0.5 to 20 µM
4,"N#Cc1cc(Cl)cc(S(=O)(=O)Nc2cc(-c3ccccc3)ccc2O)c1 [I-218, 3-chloro-5-cyano-N-[4-hydroxy-[1,1-biphenyl]-3-yl]benzene-1-sulfonamide]",0.5 to 20 µM
5,"COC(=O)c1cc(Cl)c(OC)c(S(=O)(=O)Nc2cc(-c3ccccc3)c(F)cc2F)c1 [I-63, Methyl 3-chloro-5-(N-(4,6-difluoro-[1,1′-biphenyl]-3-yl)sulfamoyl)-4-methoxybenzoate]",0.5 to 20 µM
6,"O=S(=O)(Nc1cc(-c2ccccc2)c(F)cc1F)c1cc(Cl)cc(Br)c1 [I-246, 3-bromo-5-chloro-N-(4,6-difluoro-[1,1′-biphenyl]-3-yl)benzenesulfonamide]",0.5 to 20 µM
7,"O=C(O)c1cc(Cl)ccc1NS(=O)(=O)c1cc(Cl)cc(Cl)c1 [I-343, 5-chloro-2-((3,5-dichlorophenyl)sulfonamido)benzoic Acid]",0.5 to 20 µM
8,"CNC(=O)c1cc(Cl)c(OC)c(S(=O)(=O)Nc2cc(-c3ccccc3)ccc2OC)c1 [I-433, 3-chloro-4-methoxy-5-(N-(4-methoxy-[1,1′-biphenyl]-3-yl)sulfamoyl)-N-methylbenzamide]",> 20 µM
9,"COc1ccc(-c2ccccc2)cc1NS(=O)(=O)c1cc(Cl)cc(Cl)c1N [I-414, 2-amino-3,5-dichloro-N-(2-methoxy-5-phenylphenyl) benzene-1-sulfonamide]",> 20 µM
10,CC(C)(CNS(=O)(=O)c1cc(Cl)cc(Cl)c1O)c1cccs1 [I-173],0.5 to 20 µM
11,O=C(O)c1ccc(-c2ccccc2)cc1NS(=O)(=O)c1cc(Br)cc2c1OCCNC2=O [I-359],0.5 to 20 µM
12,"O=C(O)c1cc(-c2ccccc2)ccc1NS(=O)(=O)c1cc(Cl)cc(Cl)c1 [I-278, 4-((3,5-dichlorophenyl)sulfonamido)-[1,1′-biphenyl]-3-carboxylic acid]",0.5 to 20 µM
13,"Cc1ccc(C(=O)O)c(NS(=O)(=O)c2cc(Cl)cc(Cl)c2)c1 [I-321, 2-((3,5-dichlorophenyl)sulfonamido)-4-methylbenzoic Acid]",0.5 to 20 µM
14,"COC(=O)Cc1ccc(-c2ccccc2)cc1NS(=O)(=O)c1cc(Cl)cc(Cl)c1 [I-530, methyl 2-(3-((3,5-dichlorophenyl)sulfonamido)-[1,1′-biphenyl]-4-yl)acetate]",> 20 µM
15,"O=S(=O)(Nc1cc(-c2ccccc2)ccc1O)c1cccc(-c2nn[nH]n2)c1 [I-25, N-(2-hydroxy-5-phenylphenyl)-3-(2H-1,2,3,4-tetrazol-5-yl) benzene-1-sulfonamide]",0.5 to 20 µM
16,"COc1ccc(-c2ccccc2)cc1NS(=O)(=O)c1cccc(-c2nnn(C)n2)c1 [I-436, N-(2-methoxy-5-phenylphenyl)-3-(2-methyl-2H-1,2,3,4-tetrazol-5-yl)benzene-1-sulfonamide]",> 20 µM
17,"Cc1nn(C)c(Cl)c1S(=O)(=O)Nc1cc(-c2ccccc2)ccc1C(=O)O [I-345, 3-((5-chloro-1,3-dimethyl-1H-pyrazole)-4-sulfonamido)-[1,1′-biphenyl]-4-carboxylic Acid]",0.5 to 20 µM
18,"COc1ccc(-c2ccccc2)cc1NS(=O)(=O)c1cc(Cl)cc(C#N)c1 [I-422, 3-chloro-5-cyano-N-(2-methoxy-5-phenylphenyl)benzene-1-sulfonamide]",> 20 µM
19,"O=C(O)c1cc(Br)cc(S(=O)(=O)Nc2cc(-c3ccccc3)ccc2C(=O)O)c1 [I-303, 3-((3-bromo-5-carboxyphenyl)sulfonamido)-[1,1′-biphenyl]-4-carboxylic Acid]",0.5 to 20 µM
20,"COc1c(Cl)cc(Cl)cc1S(=O)(=O)Nc1cc(C(=O)O)ccc1F [I-413, 3-[(3,5-dichloro-2-methoxybenzene)sulfonamido]-4-fluorobenzoic Acid]",> 20 µM
21,"O=C(O)c1sccc1NS(=O)(=O)c1cc(Cl)cc(Cl)c1 [I-362, 3-((3,5-dichlorophenyl)sulfonamido)thiophene-2-carboxylic Acid]",0.5 to 20 µM
22,"COc1ccc(C(=O)N2CCC2)cc1S(=O)(=O)Nc1cc(-c2ccccc2)c(F)cc1F [I-384, 5-(azetidine-1-carbonyl)-N-[4,6-difluoro-[1,1-biphenyl]-3-yl]-2-methoxybenzene-1-sulfonamide]",> 20 µM
23,"O=C(COc1c(Cl)cc(C(=O)N2CCC2)cc1S(=O)(=O)Nc1cc(-c2ccccc2)c(F)cc1F)OCc1ccccc1 [I-375, benzyl 2-(4-(azetidine-1-carbonyl)-2-chloro-6-(N-(4,6-difluoro-[1,1′-biphenyl]-3-yl)sulfamoyl)phenoxy)acetate]",> 20 µM
